Assay results taken from the NIST ThermoML archive (doi:10.1016/j.jct.2011.12.035).

Assay: xn = mol fraction of the nth substance listed
Details: Gas, Buoyancy - hydrostatic balance with magnetic suspension - one sinker

N#N [nitrogen] + O=C=O
Details	mass density [kg/m3]
250.01 K, 994.48 kPa, x2 = 0.2	15.21
250.02 K, 1979.3 kPa, x2 = 0.2	30.827
250.02 K, 4032.4 kPa, x2 = 0.2	65.204
250.02 K, 6013.2 kPa, x2 = 0.2	100.543
250.02 K, 8000.9 kPa, x2 = 0.2	137.785
250.02 K, 10004 kPa, x2 = 0.2	176.401
250.02 K, 12010 kPa, x2 = 0.2	215.101
250.02 K, 14018 kPa, x2 = 0.2	252.741
250.02 K, 16027 kPa, x2 = 0.2	288.385
250.02 K, 18039 kPa, x2 = 0.2	321.449
250.02 K, 19633 kPa, x2 = 0.2	345.629
250.04 K, 2996.3 kPa, x2 = 0.2	47.559
250.04 K, 4997.5 kPa, x2 = 0.2	82.144
250.05 K, 488.24 kPa, x2 = 0.2	7.397
250.05 K, 997.91 kPa, x2 = 0.2	15.262
250.05 K, 6997.7 kPa, x2 = 0.2	118.767
250.05 K, 8998.8 kPa, x2 = 0.2	156.893
250.05 K, 11001 kPa, x2 = 0.2	195.63
250.05 K, 13005 kPa, x2 = 0.2	233.864
250.05 K, 15008 kPa, x2 = 0.2	270.511
250.05 K, 17012 kPa, x2 = 0.2	304.796
250.05 K, 17639 kPa, x2 = 0.2	314.981
274.99 K, 998.23 kPa, x2 = 0.2	13.8
274.99 K, 1987.8 kPa, x2 = 0.2	27.804
274.99 K, 3995.6 kPa, x2 = 0.2	57.18
274.99 K, 5997.2 kPa, x2 = 0.2	87.563
274.99 K, 7998.9 kPa, x2 = 0.2	118.772
274.99 K, 10000 kPa, x2 = 0.2	150.404
274.99 K, 12005 kPa, x2 = 0.2	182.017
274.99 K, 14006 kPa, x2 = 0.2	213.01
274.99 K, 16009 kPa, x2 = 0.2	243.011
274.99 K, 18043 kPa, x2 = 0.2	272.044
274.99 K, 19430 kPa, x2 = 0.2	290.888
275.02 K, 996.58 kPa, x2 = 0.501	16.162
275.02 K, 1993.3 kPa, x2 = 0.501	33.323
275.02 K, 2996.6 kPa, x2 = 0.501	51.754
275.02 K, 3997.4 kPa, x2 = 0.501	71.374
275.02 K, 4998.7 kPa, x2 = 0.501	92.411
275.02 K, 5999.5 kPa, x2 = 0.501	114.98
275.02 K, 7003.4 kPa, x2 = 0.501	139.278
275.02 K, 8006 kPa, x2 = 0.501	165.225
275.02 K, 9125.5 kPa, x2 = 0.501	196.081
275.02 K, 10029 kPa, x2 = 0.501	222.169
275.02 K, 11018 kPa, x2 = 0.501	251.523
275.02 K, 12025 kPa, x2 = 0.501	281.541
275.02 K, 13025 kPa, x2 = 0.501	310.916
275.03 K, 14032 kPa, x2 = 0.501	339.405
275.03 K, 15032 kPa, x2 = 0.501	366.266
275.03 K, 15926 kPa, x2 = 0.501	388.806
275.04 K, 17027 kPa, x2 = 0.501	414.634
275.04 K, 17563 kPa, x2 = 0.501	426.437
299.95 K, 2996.2 kPa, x2 = 0.2	38.386
299.95 K, 4996.3 kPa, x2 = 0.2	64.833
299.95 K, 6997.1 kPa, x2 = 0.2	91.756
299.95 K, 8997.6 kPa, x2 = 0.2	118.906
299.95 K, 11032 kPa, x2 = 0.2	146.5
299.95 K, 13037 kPa, x2 = 0.2	173.362
299.95 K, 15002 kPa, x2 = 0.2	199.149
299.95 K, 17077 kPa, x2 = 0.2	225.549
299.95 K, 18151 kPa, x2 = 0.2	238.85
299.96 K, 492.88 kPa, x2 = 0.2	6.193
299.96 K, 984.74 kPa, x2 = 0.2	12.423
299.96 K, 995.87 kPa, x2 = 0.501	14.686
299.96 K, 15998 kPa, x2 = 0.501	308.658
299.97 K, 1995.1 kPa, x2 = 0.501	30.061
299.97 K, 2998.8 kPa, x2 = 0.501	46.195
299.97 K, 4000.2 kPa, x2 = 0.501	62.993
299.97 K, 5015.8 kPa, x2 = 0.501	80.785
299.97 K, 6023.7 kPa, x2 = 0.501	99.216
299.97 K, 7004.9 kPa, x2 = 0.501	117.9
299.97 K, 8009.1 kPa, x2 = 0.501	137.74
299.97 K, 9014.3 kPa, x2 = 0.501	158.299
299.97 K, 9993.3 kPa, x2 = 0.501	178.967
299.97 K, 9996.5 kPa, x2 = 0.501	178.959
299.97 K, 10996 kPa, x2 = 0.501	200.469
299.97 K, 11995 kPa, x2 = 0.501	222.215
299.97 K, 12998 kPa, x2 = 0.501	244.208
299.97 K, 13996 kPa, x2 = 0.501	266
299.97 K, 14996 kPa, x2 = 0.501	287.528
299.97 K, 16996 kPa, x2 = 0.501	329.04
299.97 K, 17997 kPa, x2 = 0.501	348.774
299.97 K, 19020 kPa, x2 = 0.501	368.091
299.97 K, 19970 kPa, x2 = 0.501	385.259
324.96 K, 1994 kPa, x2 = 0.2	23.265
324.96 K, 1994.1 kPa, x2 = 0.2	23.265
324.96 K, 3976.6 kPa, x2 = 0.2	46.775
324.96 K, 5997.1 kPa, x2 = 0.2	70.986
324.96 K, 7997.5 kPa, x2 = 0.2	95.062
324.96 K, 9999.3 kPa, x2 = 0.2	119.106
324.96 K, 12001 kPa, x2 = 0.2	142.924
324.96 K, 14002 kPa, x2 = 0.2	166.343
324.96 K, 16004 kPa, x2 = 0.2	189.249
324.96 K, 18002 kPa, x2 = 0.2	211.461
324.96 K, 19964 kPa, x2 = 0.2	232.536
324.98 K, 974.07 kPa, x2 = 0.501	13.176
324.98 K, 1991.5 kPa, x2 = 0.501	27.367
324.98 K, 2996.4 kPa, x2 = 0.501	41.83
324.98 K, 3995.3 kPa, x2 = 0.501	56.615
324.98 K, 4997.2 kPa, x2 = 0.501	71.872
324.98 K, 5995.1 kPa, x2 = 0.501	87.485
324.98 K, 6998.1 kPa, x2 = 0.501	103.583
324.98 K, 7998.2 kPa, x2 = 0.501	120.002
324.98 K, 9001.9 kPa, x2 = 0.501	136.826
